“Also recorded” adds a separate entry of the source. Structures can show the parent of a compound that is named as a salt.
Legend:
mice [1] = test: overall behavior and reactivities in mice; type: in vivo, mouse; conditions: i.p.
Protocol: (§1) Groups of three animals are observed before and then 0.25 hour, 0.50 hour, 1 hour, 2 hours, 3 hours and 24 hours after the administration of CRL 41 224.

rats [2] = test: overall behavior and reactivities in rats; type: in vivo, rat; conditions: i.p.
Protocol: as §1

mice [3] = test: interaction with apomorphine in mice; type: in vivo, mouse; conditions: i.p.; dose not stated
Protocol: Groups of 6 mice receive CRL 41 224 0.5 hour before the subcutaneous injection of 1 or 16 mg/kg of apomorphine.

rats [4] = test: interaction with apomorphine in rats; type: in vivo, rat; conditions: i.p., dose not stated
Protocol: CRL 41 224 is administered to groups of 6 rats 0.5 hour before the subcutaneous injection of 0.5 mg/kg of apomorphine.

rats [5] = test: interaction with amphetamine; type: in vivo, rat; conditions: rats, i.p.; dose not stated
Protocol: Amphetamine (2 mg/kg) is injected intraperitoneally into groups of 6 rats 30 minutes after the administration of CRL 41 224.

mice [6] = test: interaction with reserpine; type: in vivo, mouse; conditions: i.p.; dose not stated
Protocol: Four hours after the intraperitoneal injection of 2.5 mg/kg of reserpine, groups of 6 mice receive CRL 41 224.

mice [7] = test: interaction with oxotremorine; type: in vivo, mouse; conditions: i.p.
Protocol: CRL 41 224 is administered to groups of 6 mice 0.5 hour before the intraperitoneal injection of 0.5 mg/kg of oxotremorine.

mice [8] = test: four plate test, traction and electric shock; type: in vivo, mouse; conditions: i.p.
Protocol: The test is performed on groups of 10 mice 30 minutes after the administration of CRL 41 224.

mice [9] = test: action on the spontaneous motility (actimeter); type: in vivo, mouse
Protocol: 0.5 hour after they have received CRL 41 224, the mice (6 per dose, 12 control animals) are placed in an actimeter, where their motility is recorded for 30 minutes.

mice [10] = test: motility reduced by habituation to the enclosure; type: in vivo, mouse; conditions: i.p., dose not stated
Protocol: After they have stayed in the actimeters for 18 hours, the mice (6 per dose, 12 control animals) receive CRL 41 224. They are immediately returned to their respective enclosures and, half an hour later, their motility is recorded for 30 minutes.

mice [11] = test: motility reduced by hypoxic aggression; type: in vivo, mouse; conditions: i.p., dose not stated
Protocol: Half an hour after they have received CRL 41 224, the mice (10 per dose, 20 control animals) are subjected to acute hypobaric anoxia [pressure reduction of 600 mm Hg (i.e. about 8×10^4 Pa) in 90 seconds; release of vacuum in 45 seconds] and are then placed in an actimeter, where their motility is recorded for 10 minutes.

mice [12] = test: interaction with barbital; type: in vivo, mouse
Protocol: Half an hour after the administration of CRL 41 224, groups of 10 mice receive an intraperitoneal injection of barbital (220 mg/kg).

mice [13] = test: action on the behavioral despair; type: in vivo, mouse; conditions: i.p.
Text: Half an hour after they have received CRL 41 224, groups of 6 mice are placed in a beaker filled with water to a height of 6 cm. The total period of immobility between the 2nd and 6th minutes following immersion is noted.

man = test: clinical trials; type: in vivo, human; conditions: tablets or gelatine capsules 2 mg, 2 to 3 per day
CNS = test: overall neuropsychopharmacological (CNS) profile; type: in vivo, mouse; rat; conditions: i.p.
Protocol: The neuropsychopharmacological study of CRL 41 219 was carried out as indicated above for CRL 41 224.
The neuropsychopharmacological study of CRL 41 220 was carried out in accordance with the procedures given above for CRL 41 224.

[14] = tested on: peripheral α-adrenergic stimulation; test: signs of peripheral adrenergic stimulation; type: in vivo, mouse; rat; conditions: i.p.; dose not stated
Protocol: as §1

mice [15] = test: toxicity to grouped mice compared with isolated mice; type: in vivo, mouse
rats [16] = test: action on stereotypies in rats (α-methyltyrosine, haloperidol, reserpine); conditions: i.p.
male mice = test: acute toxicity, intraperitoneal (lethal doses); type: in vivo, mouse; conditions: i.p.
Protocol: By intraperitoneal administration to male mice, the LD-30 (lethal dose for 30% of the animals tested) is of the order of 128 mg/kg and the LD-50 is of the order of about 200 mg/kg.

mice [17] = test: action on the intergroup aggression; type: in vivo, mouse; conditions: i.p., high doses
Protocol: After they have stayed for 3 weeks in the 2 halves of a cage divided by an opaque partition, groups of 3 mice receive CRL 41 224. Half an hour later, the two groups from the same cage are brought together by removal of the partition, and the number of fights which occur in 10 minutes is noted. Half the test is performed on ordinary mice (NMRI, C.E.R. January) and half on NMRI (Iffa Credo) mice.

mice [18] = test: asphyxiant anoxia (gallamine triiodoethylate); type: in vivo, mouse; conditions: i.p., high dose
Protocol: Groups of 10 mice receive CRL 41 224 half an hour before the intraperitoneal administration of 32 mg/kg of gallamine triiodoethylate (reference curarizing agent).

[19] = pH of the aqueous solution as a function of concentration; type: physicochemical
Protocol: The neuropsychopharmacological study of CRL 41 242 was carried out according to the procedures described above for CRL 41 224, except that the pH of the aqueous solution of CRL 41 242 to be injected intraperitoneally varies as a function of the concentration in the manner indicated in Table III below.

immunological properties = test: immunological properties, overall; type: in vivo; conditions: dose not stated; dihydrochloride
Text: The present 1-(acetylaminophenyl)-2-aminopropanone derivatives are useful in therapy. They all act on the CNS, more precisely as antidepressants. They have a stimulant or excitant component in their neuropsychopharmacological profile.

Compound: CC(=O)Nc1ccc(C(=O)C(C)NC(C)(C)C)cc1 (stereo not drawn) [CRL 41 177]
- excitation in mice (mice [1]; mice, dose not stated): excitation with hyperreactivity in mice
- stereotype movements in rats (rats [2]; dose not stated): stereotype movements in rats
- hypothermia induced by apomorphine (mice [3]): antagonism of the hypothermia induced by apomorphine
- stereotypies induced by apomorphine (rats [4]): potentiation of the stereotypies induced by apomorphine
- stereotypies induced by amphetamine (rats [5]): potentiation of the stereotypies induced by apomorphine or amphetamine
- hypothermia induced by reserpine (mice [6]): antagonism of the hypothermia induced by apomorphine, oxotremorine or reserpine
- ptosis induced by reserpine (mice [6]): antagonism of the ptosis induced by reserpine
- hypothermia induced by oxotremorine (mice [7]; dose not stated): antagonism of the hypothermia induced by apomorphine, oxotremorine
- trembling caused by oxotremorine (mice [7]; dose not stated): antagonism of the trembling caused by oxotremorine
- convulsant effects of electric shock (mice [8]; dose not stated): potentiate the convulsant effects of electric shock
- effect on spontaneous motility, gastric versus intraperitoneal (mice [9]; male mice, gastric): greater than on intraperitoneal administration
- spontaneous motility / motor activity (mice [9]; mice, i.p., dose not stated): an increase in the spontaneous motility in mice
- motor activity after habituation to the enclosure (mice [10]): a resumption in the motor activity of mice accustomed to their enclosure
- motor recovery after hypoxic aggression (mice [11]): an improvement in the motor recovery in mice after acute hypoxia
- sleep induced by barbital (mice [12]; i.p., dose not stated): antagonism of the sleep induced by barbital
- interaction with barbital, gastric versus intraperitoneal (mice [12]; male mice, gastric): greater than on intraperitoneal administration
- period of immobility or "despair" (mice [13]; dose not stated): a reduction in the immobility
- clinical result: antidepressant (man): excellent antidepressant drug
- overall action on the CNS (CNS; mice and rats, dose not stated): stimulant effects; also recorded: antidepressant effects
- exophthalmos [14]: absent
- mydriasis [14]: mydriasis
- peripheral adrenergic stimulation, overall [14]: effects which may reflect peripheral adrenergic stimulation
- salivation [14]: absent
- toxicity to grouped mice compared with isolated mice (mice [15]): do not increase the toxicity to grouped mice
- suppression of induced stereotype movements by prior injection of alpha-methyltyrosine (rats [16]): not suppressed

Compound: CC(=O)Nc1ccc(C(=O)C(C)N2CCN(C)CC2)cc1 (stereo not drawn) [CRL 41 242, 1-(4-acetylaminophenyl)-2-(4-methylpiperazino)-propanone dihydrochloride]
- LD-0 (maximum non-lethal dose) (male mice): greater than 256 mg/kg
- LD-60 (male mice): about 500 mg/kg
- reactivities (mice [1]; high doses): decrease in the reactivities
- body temperature (hypothermia) (mice [1]; strong/high doses): hypothermia in mice
- sedation (mice [1]; mice, high doses): sedation in mice
- sedation (rats [2]; high doses): sedation in mice and rats
- hypothermia induced by oxotremorine (mice [7]; strong/high doses): very moderate antagonism of the hypothermia induced by oxotremorine
- number of punished passes in the four plate test (mice [8]; mice, high doses): a decrease in the spontaneous motility and the number of punished passes
- spontaneous motility (mice [9]; mice, i.p., high doses): a decrease in the spontaneous motility
- intergroup aggression (mice [17]): a reduction in the intergroup aggression
- time taken for asphyxiant convulsions (and death) to occur (mice [18]): an increase in the time taken for convulsions and death to occur following asphyxiant anoxia
- duration of the sleep induced by barbital (mice [12]; i.p., strong/high doses): an increase in the duration of the sleep induced by barbital
- period of immobility of mice forcibly immersed (mice [13]; strong/high doses): a slight reduction in the period of immobility
- pH of the aqueous solution ([19]; 0.2 g/liter): 5.0
- pH of the aqueous solution ([19]; 0.4 g/liter): 4.5
- pH of the aqueous solution ([19]; 0.8 g/liter): 4.0
- pH of the aqueous solution ([19]; 2 g/liter): 3.5
- pH of the aqueous solution ([19]; 13 g/liter): 3.0
- pH of the aqueous solution ([19]; 50 g/liter): 2.5
- pH of the aqueous solution ([19]; ≤0.05 g/liter): 5.5
- overall action on the CNS (CNS; strong/high doses, dihydrochloride): sedative effects; also recorded: antidepressant effects
- effects of the stimulant type (CNS; weak doses): very discreet effects of the stimulant type
- immunological properties, overall (immunological properties): beneficial immunomodulating effects; also recorded: particularly valuable as an immunostimulant substance
